Results as given in the supplement of paper PMC10627819.

Columns and labels:
S. pneumoniae D39V = assay: Bliss interaction score (quartile over a dose matrix) (fitness difference); higher = more antagonism (negative = synergy)
Outline: (§1)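 The Bliss score is observed fitness minus expected fitness, where the expected value is the product of single-drug fitness values inferred from combination data. Fitness is OD595 at entry into stationary phase normalised to the plate's robust no-drug mean and capped at 1. Scores are reported as quartiles spanning technical, biological and donor/recipient replicates.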

S. aureus DSM 20231 [1] = assay: as above
Outline: as §1

B. subtilis 168 = assay: as above
Outline: as §1

S. aureus Newman [2] = assay: as above
Outline: as §1

S. aureus Newman [3] = assay: fitness (endpoint OD595 vs no drug) (fraction); higher = more growth
Outline: (§2)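 Fitness expresses the optical density reached at the stationary-phase transition as a fraction of the robust mean of no-drug control wells. It is capped at 1. Measurements were OD595 every 30 min for 14 h at 37 °C after inoculation of 384-well plates at OD595 0.01 (30 µl, or 55 µl for S. pneumoniae), minus the first reading.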

S. aureus DSM 20231 [4] = assay: as above
Outline: as §2

[5] = first compound 0.75 µg/mL, partner 0.125 µg/mL
[6] = first compound 1.5 µg/mL, partner 0.125 µg/mL
[7] = first compound 3 µg/mL, partner 0.0312 µg/mL
[8] = first compound 3 µg/mL, partner 0.0625 µg/mL
[9] = first compound 3 µg/mL, partner 0.125 µg/mL
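For Bliss interaction score (quartile over a dose matrix) in this document: first quartile when negative (synergy) and third quartile when positive (antagonism).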
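For fitness (endpoint OD595 vs no drug) in this document: OD595 on entry to stationary phase over no-drug wells; at most 1.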

Work on `CC(=O)OC[C@H]1O[C@@H]([S-])[C@H](OC(C)=O)[C@@H](OC(C)=O)[C@@H]1OC(C)=O.CCP(CC)CC.[Au+]` [Auranofin] + C1=CC(=CC(=C1)Cl)NN=C(C#N)C#N [CCCP] yielded a Bliss interaction score (S. pneumoniae D39V) of 0.0425, a Bliss interaction score (S. aureus DSM 20231 [1]) of 0.0194 and a Bliss interaction score (B. subtilis 168) of 0.0372. The Bliss interaction score (S. aureus Newman [2]) was 0.0798.

In the case of `CC(=O)OC[C@H]1O[C@@H]([S-])[C@H](OC(C)=O)[C@@H](OC(C)=O)[C@@H]1OC(C)=O.CCP(CC)CC.[Au+]` [Auranofin] + C/C(=C\C(=O)OCCCCCCCCC(=O)O)C[C@@H]1OC[C@H](C[C@@H]2O[C@H]2[C@@H](C)[C@H](C)O)[C@@H](O)[C@H]1O [Pseudomonic acid], the Bliss interaction score (S. pneumoniae D39V) is reported as 0.081, the Bliss interaction score (S. aureus DSM 20231 [1]) is reported as 0.0133 and the Bliss interaction score (B. subtilis 168) is reported as 0.0268. The Bliss interaction score (S. aureus Newman [2]) was 0.0254.

`CC(=O)OC[C@H]1O[C@@H]([S-])[C@H](OC(C)=O)[C@@H](OC(C)=O)[C@@H]1OC(C)=O.CCP(CC)CC.[Au+]` [Auranofin] + CC1(C)S[C@@H]2[C@H](NC(=O)Cc3ccccc3)C(=O)N2[C@H]1C(=O)O [PenicillinG] showed a Bliss interaction score (S. pneumoniae D39V) of 0.0454, a Bliss interaction score (S. aureus DSM 20231 [1]) of 0.0414 and a Bliss interaction score (B. subtilis 168) of -0.0513. The Bliss interaction score (S. aureus Newman [2]) was -0.0443.

`CC(=O)OC[C@H]1O[C@@H]([S-])[C@H](OC(C)=O)[C@@H](OC(C)=O)[C@@H]1OC(C)=O.CCP(CC)CC.[Au+]` [Auranofin] + CC1=C(C(=O)O)N2C(=O)[C@@H](NC(=O)[C@H](N)c3ccccc3)[C@H]2SC1 [Cephalexin] gave a Bliss interaction score (S. pneumoniae D39V) of -0.101, a Bliss interaction score (S. aureus DSM 20231 [1]) of -0.0272 and a Bliss interaction score (B. subtilis 168) of -0.0587. The Bliss interaction score (S. aureus Newman [2]) was -0.0291.

Work on `CC(=O)OC[C@H]1O[C@@H]([S-])[C@H](OC(C)=O)[C@@H](OC(C)=O)[C@@H]1OC(C)=O.CCP(CC)CC.[Au+]` [Auranofin] + CC1=C\[C@@H](O)CC(=O)Cc2nc(co2)C(=O)N2CCC=C2C(=O)O[C@H](C(C)C)[C@H](C)/C=C/C(=O)NC\C=C\1 [Virginiamycin M1] yielded a Bliss interaction score (S. pneumoniae D39V) of 0.0585, a Bliss interaction score (S. aureus DSM 20231 [1]) of -0.0753 and a Bliss interaction score (B. subtilis 168) of -0.0329. The Bliss interaction score (S. aureus Newman [2]) was -0.0212.

`CC(=O)OC[C@H]1O[C@@H]([S-])[C@H](OC(C)=O)[C@@H](OC(C)=O)[C@@H]1OC(C)=O.CCP(CC)CC.[Au+]` [Auranofin] + CC(=O)NC[C@H]1CN(c2ccc(N3CCOCC3)c(F)c2)C(=O)O1 [Linezolid] was tested, and the Bliss interaction score (S. pneumoniae D39V) was -0.104, the Bliss interaction score (S. aureus DSM 20231 [1]) was 0.0191 and the Bliss interaction score (B. subtilis 168) was -0.0379. The Bliss interaction score (S. aureus Newman [2]) was 0.067.

`O=C(N[C@H](CO)[C@H](O)c1ccc([N+](=O)[O-])cc1)C(Cl)Cl` [Chloramphenicol] + CC(C1CCC(C(O1)OC2C(CC(C(C2O)OC3C(C(C(CO3)(C)O)NC)O)N)N)N)NC [Gentamicin] was tested, and the fitness (S. aureus Newman [3]; first compound 0.75 µg/mL, partner 0.375 µg/mL, main component drawn) was 0.778, the fitness (S. aureus Newman [3]; first compound 0.75 µg/mL, partner 0.5 µg/mL, main component drawn) was 0.868 and the fitness (S. aureus Newman [3]; first compound 0.75 µg/mL, partner 0.75 µg/mL, main component drawn) was 0.778. The fitness (S. aureus Newman [3]; first compound 0.75 µg/mL, partner 1 µg/mL, main component drawn) was 0.974, the fitness (S. aureus Newman [3]; first compound 0.75 µg/mL, partner 1.5 µg/mL, main component drawn) was 0.765 and the fitness (S. aureus Newman [3]; first compound 0.75 µg/mL, partner 2 µg/mL, main component drawn) was ≥ 1. It also gave a fitness (S. aureus Newman [3]; first compound 1.5 µg/mL, partner 0.375 µg/mL, main component drawn) of 0.507, a fitness (S. aureus Newman [3]; first compound 1.5 µg/mL, partner 0.5 µg/mL, main component drawn) of 0.775 and a fitness (S. aureus Newman [3]; first compound 1.5 µg/mL, partner 0.75 µg/mL, main component drawn) of 0.543. It also gave a fitness (S. aureus Newman [3]; first compound 1.5 µg/mL, partner 1 µg/mL, main component drawn) of 0.893, a fitness (S. aureus Newman [3]; first compound 1.5 µg/mL, partner 1.5 µg/mL, main component drawn) of 0.561 and a fitness (S. aureus Newman [3]; first compound 1.5 µg/mL, partner 2 µg/mL, main component drawn) of 0.871. The fitness (S. aureus Newman [3]; first compound 3 µg/mL, partner 0.375 µg/mL, main component drawn) was 0.208, the fitness (S. aureus Newman [3]; first compound 3 µg/mL, partner 0.5 µg/mL, main component drawn) was 0.436 and the fitness (S. aureus Newman [3]; first compound 3 µg/mL, partner 0.75 µg/mL, main component drawn) was 0.223. The fitness (S. aureus Newman [3]; first compound 3 µg/mL, partner 1 µg/mL, main component drawn) was 0.487, the fitness (S. aureus Newman [3]; first compound 3 µg/mL, partner 1.5 µg/mL, main component drawn) was 0.231 and the fitness (S. aureus Newman [3]; first compound 3 µg/mL, partner 2 µg/mL, main component drawn) was 0.512. It also gave a Bliss interaction score (S. pneumoniae D39V; main component drawn) of -0.162, a Bliss interaction score (S. aureus DSM 20231 [1]; main component drawn) of 0.0877 and a Bliss interaction score (B. subtilis 168; main component drawn) of 0.13.

In the case of `O=C(N[C@H](CO)[C@H](O)c1ccc([N+](=O)[O-])cc1)C(Cl)Cl` [Chloramphenicol] + CCC[C@@H]1C[C@@H](C(=O)N[C@@H]([C@H]2O[C@H](SC)[C@H](O)[C@@H](O)[C@H]2O)[C@H](C)Cl)N(C)C1 [Clindamycin], the fitness (S. aureus DSM 20231 [4]; first compound 0.75 µg/mL, partner 0.0625 µg/mL) is reported as 0.0956, the fitness (S. aureus DSM 20231 [4]; [5]) is reported as 0.0527 and the fitness (S. aureus DSM 20231 [4]; [6]) is reported as 0.0897. It also gave a fitness (S. aureus DSM 20231 [4]; [7]) of 0.137, a fitness (S. aureus DSM 20231 [4]; [8]) of 0.0841 and a fitness (S. aureus DSM 20231 [4]; [9]) of 0.0677. It also gave a fitness (S. aureus Newman [3]; first compound 0.75 µg/mL, partner 0.0312 µg/mL) of 0.539, a fitness (S. aureus Newman [3]; [5]) of 0.0906 and a fitness (S. aureus Newman [3]; first compound 1.5 µg/mL, partner 0.0312 µg/mL) of 0.392. The fitness (S. aureus Newman [3]; [6]) was 0.0591, the fitness (S. aureus Newman [3]; [7]) was 0.11 and the fitness (S. aureus Newman [3]; [8]) was 0.0976. For the same compound, the fitness (S. aureus Newman [3]; [9]) was 0.0645, the Bliss interaction score (S. pneumoniae D39V) was 0.155 and the Bliss interaction score (S. aureus DSM 20231 [1]) was 0.0541. It also gave a Bliss interaction score (S. aureus Newman [2]) of -0.0758.

Compound `O=C(N[C@H](CO)[C@H](O)c1ccc([N+](=O)[O-])cc1)C(Cl)Cl` [Chloramphenicol] + CN(C)C(=O)C(CCN1CCC(O)(c2ccc(Cl)cc2)CC1)(c1ccccc1)c1ccccc1 [Loperamide] has a Bliss interaction score (S. pneumoniae D39V) of 0.146, a Bliss interaction score (B. subtilis 168) of -0.18 and a Bliss interaction score (S. aureus Newman [2]) of -0.0555.

`O=C(N[C@H](CO)[C@H](O)c1ccc([N+](=O)[O-])cc1)C(Cl)Cl` [Chloramphenicol] + CO[C@H]1/C=C/O[C@@]2(C)Oc3c(C)c(O)c4c(O)c(c(/C=N/N5CCN(C)CC5)c(O)c4c3C2=O)NC(=O)/C(C)=C\C=C\[C@H](C)[C@H](O)[C@@H](C)[C@@H](O)[C@@H](C)[C@H](OC(C)=O)[C@@H]1C [Rifampicin] was tested, and the Bliss interaction score (S. pneumoniae D39V) was 0.069, the Bliss interaction score (S. aureus DSM 20231 [1]) was 0.0582 and the Bliss interaction score (S. aureus Newman [2]) was 0.0185.

In the case of `O=C(N[C@H](CO)[C@H](O)c1ccc([N+](=O)[O-])cc1)C(Cl)Cl` [Chloramphenicol] + COc1cc(Cc2cnc(N)nc2N)cc(OC)c1OC [Trimethoprim], the fitness (S. aureus DSM 20231 [4]; [5]) is reported as 0.613, the fitness (S. aureus DSM 20231 [4]; first compound 0.75 µg/mL, partner 0.25 µg/mL) is reported as 0.648 and the fitness (S. aureus DSM 20231 [4]; first compound 0.75 µg/mL, partner 0.5 µg/mL) is reported as 0.48. The fitness (S. aureus DSM 20231 [4]; first compound 0.75 µg/mL, partner 1 µg/mL) was 0.0816, the fitness (S. aureus DSM 20231 [4]; [6]) was 0.499 and the fitness (S. aureus DSM 20231 [4]; first compound 1.5 µg/mL, partner 0.25 µg/mL) was 0.492. For the same compound, the fitness (S. aureus DSM 20231 [4]; first compound 1.5 µg/mL, partner 0.5 µg/mL) was 0.405, the fitness (S. aureus DSM 20231 [4]; [9]) was 0.0821 and the fitness (S. aureus DSM 20231 [4]; first compound 3 µg/mL, partner 0.25 µg/mL) was 0.0908. For the same compound, the fitness (S. aureus DSM 20231 [4]; first compound 3 µg/mL, partner 0.5 µg/mL) was 0.0866, the fitness (S. aureus DSM 20231 [4]; first compound 3 µg/mL, partner 1 µg/mL) was 0.0882 and the Bliss interaction score (S. pneumoniae D39V) was -0.081. For the same compound, the Bliss interaction score (S. aureus DSM 20231 [1]) was 0.133 and the Bliss interaction score (B. subtilis 168) was 0.0616.
